Reference: publication PMC7023430, “4-Aminobenzoic Acid Derivatives: Converting Folate Precursor to Antimicrobial and Cytotoxic Agents” (Biomolecules, 2019)
Converted amounts (≈) assume the structure as drawn. Read-outs that look alike come from different tables or passages of the source.

Experiments:
Candida tropicalis 156 = experiment: Antifungal microdilution broth method, C. tropicalis; type: cell-based
Description: (§1) The antifungal properties were evaluated against five yeast strains, namely: Candida albicans ATCC 44859, Candida tropicalis 156, Candida krusei […], Candida glabrata 20/I, Trichosporon […] 1188 and three strains of filamentous fungi: Aspergillus fumigatus 231, Lichtheimia corymbifera 272, and Trichophyton interdigitale 445. A microdilution broth method was performed according to EUCAST II, III instructions with slight modifications. Briefly, tested compounds were dissolved in DMSO and diluted in a twofold manner with RPMI-1640 medium with L-glutamine, supplemented with 2% glucose (w/v) and buffered to pH 7.0 with 3 morpholinopropane-1-sulfonic acid (all components were purchased from Sigma-Aldrich, USA). […] Positive controls consisted of test microbe solely, while negative controls consisted of medium and DMSO. Internal quality control was included too. Visual inspection was used for MIC endpoints evaluation. The experiments were conducted in duplicates. For the results to be valid, the difference in MIC determined from two parallel measurements must not be greater than one step on the dilution scale. PABA and triazole antimycotic drug fluconazole were involved as the reference compounds.

[1] = test system: Aspergillus fumigatus 231; experiment: Antifungal microdilution broth method, A. fumigatus; type: cell-based
Description: as §1

Candida glabrata 20/I = experiment: Antifungal microdilution broth method, C. glabrata; type: cell-based; conditions: Nakaseomyces glabratus
Description: as §1

[2] = test system: Enterococcus faecalis ATCC 29212, CCM 4224; experiment: Antibacterial microdilution broth method, E. faecalis; type: cell-based; conditions: Enterococcus faecalis
[3] = test system: four Gram-positive and four Gram-negative strains; experiment: Antibacterial activity; type: cell-based; conditions: time not stated
[4] = test system: Klebsiella pneumoniae D 11750/08; experiment: Antibacterial microdilution broth method, K. pneumoniae; conditions: K. pneumoniae D 11750/08; for MIC KP 24 h: 24 h incubation; for MIC KP 48 h: 48 h incubation
[5] = test system: Pseudomonas aeruginosa ATCC 27853, CCM 3955; experiment: Antibacterial microdilution broth method, P. aeruginosa; type: cell-based; conditions: Pseudomonas aeruginosa
[6] = test system: Mycobacterium tuberculosis H37Rv (331/88); experiment: Antimycobacterial micromethod in Šula's medium, M. tuberculosis; type: cell-based
eight fungal strains = experiment: Antifungal activity; type: cell-based; conditions: statement over the fungal panel; time not stated
Description: as §1

[7] = test system: Staphylococcus epidermidis H 6966/08; experiment: Antibacterial microdilution broth method, S. epidermidis; type: cell-based; conditions: Staphylococcus epidermidis, H6966/08, S. epidermidis
[8] = test system: M. kansasii 6509/96 (clinical isolate); experiment: Antimycobacterial micromethod in Šula's medium, M. kansasii 6509/96; type: cell-based; conditions: Mycobacterium kansasii
[9] = test system: methicillin-resistant Staphylococcus aureus ATCC 43300, CCM 4750 (MRSA); experiment: Antibacterial microdilution broth method, MRSA; type: cell-based; conditions: Staphylococcus aureus
[10] = test system: Mycobacterium kansasii 235/80; experiment: Antimycobacterial micromethod in Šula's medium, M. kansasii 235/80; type: cell-based
[11] = test system: Staphylococcus aureus ATCC 29213, CCM 4223; experiment: Antibacterial microdilution broth method, S. aureus; type: cell-based
[12] = test system: Escherichia coli ATCC 25922, CCM 3954; experiment: Antibacterial microdilution broth method, E. coli; type: cell-based; conditions: Escherichia coli
Candida krusei E28 = experiment: Antifungal microdilution broth method, C. krusei; type: cell-based; conditions: Pichia kudriavzevii
Description: as §1

[13] = test system: Mtb. 331/88 and three non-tuberculous mycobacterial strains; experiment: Antimycobacterial activity; type: cell-based; conditions: statement over four mycobacterial strains; time not stated
Trichosporon asahii 1188 = experiment: Antifungal microdilution broth method, T. asahii; type: cell-based
Description: as §1

[14] = test system: Mycobacterium avium 330/88; experiment: Antimycobacterial micromethod in Šula's medium, M. avium; type: cell-based
[15] = test system: Candida albicans ATCC 44859; experiment: Antifungal microdilution broth method, C. albicans; type: cell-based
Description: as §1

[16] = test system: Trichophyton interdigitale 445; experiment: Antifungal microdilution broth method, T. interdigitale; type: cell-based
Description: as §1

[17] = test system: Lichtheimia corymbifera 272; experiment: Antifungal microdilution broth method, L. corymbifera; type: cell-based
Description: as §1

[18] = test system: ESBL-positive Klebsiella pneumoniae J 14368/08
[19] = 24 h incubation, read-out: MIC EF 24 h
[20] = 48 h incubation, read-out: MIC EF 48 h
[21] = P. aeruginosa, 24 h incubation, read-out: MIC PA 24 h
[22] = P. aeruginosa, 48 h incubation, read-out: MIC PA 48 h
[23] = 336 h, 14 days incubation at 37 °C, read-out: MIC Mtb. 331/88 14 d
[24] = 504 h, 21 days incubation at 37 °C, read-out: MIC Mtb. 331/88 21 d
[25] = 24 h incubation, read-out: MIC SE 24 h
[26] = 48 h incubation, read-out: MIC SE 48 h
[27] = 168 h, 7 days incubation at 37 °C, read-out: MIC M. kansasii 6509/96 7 d
[28] = 336 h, 14 days incubation at 37 °C, read-out: MIC M. kansasii 6509/96 14 d
[29] = 504 h, 21 days incubation at 37 °C, read-out: MIC M. kansasii 6509/96 21 d
[30] = 24 h incubation, read-out: MIC MRSA 24 h
[31] = 48 h incubation, read-out: MIC MRSA 48 h
[32] = 235/80, 168 h, 7 days incubation at 37 °C, read-out: MIC M. kansasii 235/80 7 d
[33] = 235/80, 336 h, 14 days incubation at 37 °C, read-out: MIC M. kansasii 235/80 14 d
[34] = 235/80, 504 h, 21 days incubation at 37 °C, read-out: MIC M. kansasii 235/80 21 d
[35] = 24 h incubation, read-out: MIC SA 24 h
[36] = 48 h incubation, read-out: MIC SA 48 h
[37] = 24 h incubation, read-out: MIC EC 24 h
[38] = 48 h incubation, read-out: MIC EC 48 h
[39] = 330/88, 336 h, 14 days incubation at 37 °C, read-out: MIC M. avium 330/88 14 d
[40] = 330/88, 504 h, 21 days incubation at 37 °C, read-out: MIC M. avium 330/88 21 d
[41] = ATCC44859, 24 h, read-out: MIC CA 24 h
[42] = ATCC44859, 48 h, read-out: MIC CA 48 h

O=C(O)c1ccc(N=Cc2ccccc2O)cc1 [1a, 4-[(2-Hydroxybenzylidene)amino]benzoic acid]
MIC (Candida tropicalis 156; 24 h, read-out: MIC CT 24 h): > 500 µM
MIC (Candida tropicalis 156; 48 h, read-out: MIC CT 48 h): > 500 µM
MIC ([1]; 24 h, read-out: MIC AF 24 h): > 500 µM
MIC ([1]; 48 h, read-out: MIC AF 48 h): > 500 µM
MIC (Candida glabrata 20/I; 24 h, read-out: MIC CG 24 h): > 500 µM
MIC (Candida glabrata 20/I; 48 h, read-out: MIC CG 48 h): > 500 µM
MIC [2, 19]: > 500 µM
MIC [2, 20]: > 500 µM
MIC, antibacterial activity ([3]; statement over the bacterial panel): avoided any antibacterial action
MIC KP 24 h [4]: >500 µM
MIC KP 48 h [4]: >500 µM
MIC [5, 21]: > 500 µM
MIC [5, 22]: > 500 µM
MIC [6, 23]: > 1000 µM
MIC [6, 24]: > 1000 µM
MIC, antifungal activity (eight fungal strains): no antimycotic potency
MIC [7, 25]: > 500 µM
MIC [7, 26]: > 500 µM
MIC [8, 27]: 1000 µM (≈ 241 µg/mL)
MIC [8, 28]: 1000 µM (≈ 241 µg/mL)
MIC [8, 29]: 1000 µM (≈ 241 µg/mL)
MIC [9, 30]: > 500 µM
MIC [9, 31]: > 500 µM
MIC [10, 32]: 1000 µM (≈ 241 µg/mL)
MIC [10, 33]: > 1000 µM
MIC [10, 34]: > 1000 µM
MIC [11, 35]: > 500 µM
MIC [11, 36]: > 500 µM
MIC [12, 37]: > 500 µM
MIC [12, 38]: > 500 µM
MIC (Candida krusei E28; 24 h, read-out: MIC CK 24 h): > 500 µM
MIC (Candida krusei E28; 48 h, read-out: MIC CK 48 h): > 500 µM
MIC, antimycobacterial activity [13]: only negligible antimycobacterial activity
MIC (Trichosporon asahii 1188; 24 h, read-out: MIC TA 24 h): > 500 µM
MIC (Trichosporon asahii 1188; 48 h, read-out: MIC TA 48 h): > 500 µM
MIC [14, 39]: > 1000 µM
MIC [14, 40]: > 1000 µM
MIC [15, 41]: > 500 µM
MIC [15, 42]: > 500 µM
MIC ([16]; 72 h, read-out: MIC TI 72 h): > 500 µM
MIC ([16]; 120 h, read-out: MIC TI 120 h): > 500 µM
MIC ([17]; 24 h, read-out: MIC LC 24 h): > 500 µM
MIC ([17]; 48 h, read-out: MIC LC 48 h): > 500 µM
MIC KP-E 24 h [18]: >500 µM
MIC KP-E 48 h [18]: >500 µM

O=C(O)c1ccc(N=Cc2cc(O)ccc2O)cc1 [1i, 4-[(2,5-Dihydroxybenzylidene)amino]benzoic acid]
MIC (Candida tropicalis 156; 24 h, read-out: MIC CT 24 h): > 500 µM
MIC (Candida tropicalis 156; 48 h, read-out: MIC CT 48 h): > 500 µM
MIC ([1]; 24 h, read-out: MIC AF 24 h): > 500 µM
MIC ([1]; 48 h, read-out: MIC AF 48 h): > 500 µM
MIC (Candida glabrata 20/I; 24 h, read-out: MIC CG 24 h): 250 µM (≈ 64.3 µg/mL)
MIC (Candida glabrata 20/I; 48 h, read-out: MIC CG 48 h): 250 µM (≈ 64.3 µg/mL)
MIC [2, 19]: 500 µM (≈ 129 µg/mL)
MIC [2, 20]: 500 µM (≈ 129 µg/mL)
MIC ([3]; Staphylococcus aureus, MRSA, read-out: MIC, multiple Gram-positive strains including MRSA): ≥ 250 µM
MIC KP 24 h [4]: 500 µM (≈ 129 µg/mL)
MIC KP 48 h [4]: 500 µM (≈ 129 µg/mL)
MIC [5, 21]: 500 µM (≈ 129 µg/mL)
MIC [5, 22]: 500 µM (≈ 129 µg/mL)
MIC ([5]; time not stated, read-out: MIC, P. aeruginosa): 500 µM (≈ 129 µg/mL)
MIC [6, 23]: 500 µM (≈ 129 µg/mL)
MIC [6, 24]: 1000 µM (≈ 257 µg/mL)
MIC (eight fungal strains): ≥ 250 µM
MIC [7, 25]: 250 µM (≈ 64.3 µg/mL)
MIC [7, 26]: 250 µM (≈ 64.3 µg/mL)
MIC [8, 27]: 500 µM (≈ 129 µg/mL)
MIC [8, 28]: 1000 µM (≈ 257 µg/mL)
MIC [8, 29]: 1000 µM (≈ 257 µg/mL)
MIC [9, 30]: 250 µM (≈ 64.3 µg/mL)
MIC [9, 31]: 250 µM (≈ 64.3 µg/mL)
MIC [10, 32]: 500 µM (≈ 129 µg/mL)
MIC [10, 33]: 500 µM (≈ 129 µg/mL)
MIC [10, 34]: 1000 µM (≈ 257 µg/mL)
MIC [11, 35]: 500 µM (≈ 129 µg/mL)
MIC [11, 36]: 500 µM (≈ 129 µg/mL)
MIC [12, 37]: > 500 µM
MIC [12, 38]: > 500 µM
MIC (Candida krusei E28; 24 h, read-out: MIC CK 24 h): > 500 µM
MIC (Candida krusei E28; 48 h, read-out: MIC CK 48 h): > 500 µM
MIC (Trichosporon asahii 1188; 24 h, read-out: MIC TA 24 h): > 500 µM
MIC (Trichosporon asahii 1188; 48 h, read-out: MIC TA 48 h): > 500 µM
MIC [14, 39]: 1000 µM (≈ 257 µg/mL)
MIC [14, 40]: > 1000 µM
MIC [15, 41]: 500 µM (≈ 129 µg/mL)
MIC [15, 42]: 500 µM (≈ 129 µg/mL)
MIC ([16]; 72 h, read-out: MIC TI 72 h): > 500 µM
MIC ([16]; 120 h, read-out: MIC TI 120 h): > 500 µM
MIC ([17]; 24 h, read-out: MIC LC 24 h): > 500 µM
MIC ([17]; 48 h, read-out: MIC LC 48 h): > 500 µM
MIC KP-E 24 h [18]: 500 µM (≈ 129 µg/mL)
MIC KP-E 48 h [18]: 500 µM (≈ 129 µg/mL)
